Experimental data reported in patent US20190166840A1, “SUBSTITUTED PYRAZOLINYL DERIVATIVES, PROCESSES FOR THEIR PREPARATION AND THEIR USE AS HERBICIDES AND/OR PLANT GROWTH REGULATORS” (BAYER CROPSCIENCE AKTIENGESELLSCHAFT, priority 2016, published 2019).
One block for each compound: values may come before it.

Legend:
[1] = target: T1, photosystem II (PS II) (Spinacia oleracea, UniProt P69560); assay: Activity determination of photosystem II (PS II) in thylakoid membranes, DCPIP reduction; format: biochemical; conditions: spinach thylakoid membranes, DCPIP 120 μM, 10 min at 22° C. with illumination
T1 construct: the chloroplasts were osmotically ruptured and the thylakoid membranes were then obtained by centrifugation; from tissue; host or cells: spinach leaves (thylakoid membrane preparation)
Description: Measurement of PS II Activity in Thylakoid Membranes
1. Preparation of the Thylakoid Membranes
Cooled fresh spinach leaves were comminuted and homogenized in 50 mM phosphate buffer, pH 6.8, 10 mM KCl, 0.34 M sucrose (sucrose buffer) (mixer, 1 g of plant material/ml). The homogenate was subsequently filtered through 4 layers of Miracloth and the chloroplasts were obtained by centrifugation: • 10 minutes (min) of centrifugation at 4400×g (4° C.). • The sediment was suspended in 25 ml of sucrose buffer and centrifuged for another 10 min at 4400×g (4° C.). • The sediment was then suspended in 40 ml of 50 mM phosphate buffer, pH 6.8, 10 mM KCl, without sucrose. • In this step, the chloroplasts were osmotically ruptured and the thylakoid membranes were then obtained by centrifugation (10 min, 4400×g, 4° C.). The membrane sediment was finally suspended in about 20 ml of 50 mM phosphate buffer, pH 6.8, 10 mM KCl. • After protein determination and activity determination, the membrane suspension was aliquoted and frozen in liquid nitrogen. The aliquots were stored at −80° C. Under these conditions, the photosystem II preparation is storage-stable for at least three months.
2. Activity Determination of the Photosystem II (PS II)
The electron transfer from PS II to an artificial electronic captor, 2,6-dichlorophenol-indophenol (DCPIP), is measured under the action of light. The concentration of the blue oxidized form of DCPIP can be determined spectraphotometrically at the wavelength l=595 nm. The enzyme-catalyzed reduction of DCPIP results in a colourless leuco form and thus to a decrease of absorption at 595 nm in the reaction batch, which is measured as a function of time.
The activity determination was carried out in microtiter plates (96 wells) in a reaction volume of 200 μl. 155 μl of dilute membrane suspension in 50 mM phosphate buffer, pH 6.8, 10 mM KCl were initially charged. Depending on the activity of the PS II preparation, the dilution was adjusted such that measurement of the decrease in absorption (λ=595 nm) was linear for at least 10 min.
Typical dilution series of the test compounds comprised 10 concentration steps in the range between 10^−9and 10^−5 M.
On each microtiter plate, a known PS II inhibitor, e.g. metribuzin, was used as standard for assessing the quality of the PS II test.
The reaction was initiated by addition of 40 μl DCPIP solution (600 μM in distilled water); the final concentration of DCPIP was 120 μM.
Absorption was measured over a period of 10 min at 22° C. and with illumination. For calculating the active compound concentration at which 50% of the enzyme activity is inhibited (IC50), the relative enzymatic activity (in %) was plotted as a function of the logarithm of the active compound concentration.

[2] = tested on: Viola tricolor; assay: Post-emergence herbicidal action, VIOTR; format: in vivo; conditions: one-leaf stage, application rate 1280 g/ha, scored visually after about 3 weeks
Description: (§1) Post-Emergence Herbicidal Activity Seeds of mono- and dicotyledonous weed plants and crop plants were placed in sandy loam in wood fibre pots, covered with soil and then cultivated in a greenhouse under good growth conditions. Two to 3 weeks after sowing, the test plants were treated at the one-leaf stage, with the formulated compounds of the general formula (I) according to the invention being sprayed as an aqueous suspension or emulsion at an application rate of 600 l of water/ha (converted) with addition of 0.2% wetting agent, onto the green parts of the plants. After the test plants had been left to stand in the greenhouse for about 3 weeks under optimum growth conditions, the activity of the preparations was scored visually in percent in comparison to untreated controls. For example, 100% activity=the plants have died, 50% herbicidal activity or damage=plants reduced to 50% or plant material reduced by 50%, 0% activity=like control plants. […] Here, the herbicidal action of the compounds of the general formula (I) according to the invention was examined for the following harmful plants: VIOTR=Viola tricolor The respective herbicidal action was in each case determined at the same point in time after application of the formulation in question, i.e. damage of the harmful plant in question in %. […]

[3] = tested on: Setaria viridis; assay: Post-emergence herbicidal action, SETVI; format: in vivo; conditions: one-leaf stage, application rate 1280 g/ha, scored visually after about 3 weeks
Description: as §1, with “SETVI=Setaria viridis” for “VIOTR=Viola tricolor”

[4] = tested on: Ipomoea purpurea; assay: Post-emergence herbicidal action, PHBPU; format: in vivo; conditions: one-leaf stage, application rate 1280 g/ha, scored visually after about 3 weeks
Description: as §1, with “PHBPU=Ipomoea purpurea” for “VIOTR=Viola tricolor”

[5] = tested on: Polygonum convolvulus (=Fallopia convolvulus); assay: Post-emergence herbicidal action, POLCO; format: in vivo; conditions: one-leaf stage, application rate 1280 g/ha, scored visually after about 3 weeks
Description: as §1, with “POLCO=Polygonum convolvulus (=Fallopia convolvulus)” for “VIOTR=Viola tricolor”

pI50 [1]: 5.7
Compound: CC1=C(Br)C(=O)N(C2=NN(C)C(c3ccc(Cl)cc3)C2)C1O (stereo not drawn) [I.8-1351]

pI50 [1]: 5.3
Compound: CC1=C(Br)C(=O)N(C2=NN(c3ccccc3)CC2)C1O (stereo not drawn) [I.8-621]
Post-emergence herbicidal action VIOTR, damage of the harmful plant [2]: 80%
Post-emergence herbicidal action SETVI, damage of the harmful plant [3]: 60%
Post-emergence herbicidal action PHBPU, damage of the harmful plant [4]: 90%
Post-emergence herbicidal action POLCO, damage of the harmful plant [5]: 90%

pI50 [1]: 5.5
Compound: CC1=C(Cl)C(=O)N(C2=NN(C)C(c3ccc(Cl)cc3)C2)C1O (stereo not drawn) [I.3-1351]

pI50 [1]: 5.4
Compound: CC1=C(Cl)C(=O)N(C2=NN(c3ccccc3)C(C)C2)C1O (stereo not drawn) [I.3-321]

pI50 [1]: 5.1
Compound: CC1=C(Br)C(=O)N(C2=NN(C)C(c3ccccc3)C2)C1O (stereo not drawn) [I.8-1126]

Further lines, the compound ahead of its results:

Compound: CC1=C(C)C(O)N(C2=NN(Cc3ccccc3)C(C)(C)C2)C1=O (stereo not drawn) [I.2-217]
pI50 [1]: 5.4

Compound: CC1=C(C)C(O)N(C2=NN(c3ccccn3)C(C)C2)C1=O (stereo not drawn) [I.2-432]
Post-emergence herbicidal action VIOTR, damage of the harmful plant [2]: 80%
Post-emergence herbicidal action SETVI, damage of the harmful plant [3]: 80%
Post-emergence herbicidal action PHBPU, damage of the harmful plant [4]: 0%
Post-emergence herbicidal action POLCO, damage of the harmful plant [5]: 0%

Compound: CC1=C(C)C(O)N(C2=NN(c3ccccc3)C(C)C2)C1=O (stereo not drawn) [I.2-321]
IC50 ([1]; read-out: pI50 (converted)): 7.94 µM
